Assay results as given in the supplement of paper PMC10307832.

Key:
Assay in all cases: relative viability (nuclei count vs DMSO), 5 days (fraction); higher = more cells survive
Tanzisertib + OSI-027 = compound: O[C@H]1CC[C@H](Nc2ncc3nc(Nc4c(F)cc(F)cc4F)n([C@H]4CCOC4)c3n2)CC1 [Tanzisertib] + COc1cccc2cc(-c3nc([C@H]4CC[C@H](C(=O)O)CC4)n4ncnc(N)c34)[nH]c12 [OSI-027] (partner 0.5 µM)
Summary of the method: (§1)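 Values are medians from duplicate plates. Each reflects relative viability, defined as the nuclei count of treated wells over that of vehicle wells. Lung cancer cell lines in 1536-well plates were pin-tool dosed one day after seeding with one drug alone or with a fixed anchor-drug dose plus five library-drug doses (not always all listed) in √10 steps, then fixed, stained and imaged at 4× after 5 days.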

Tanzisertib + Luminespib = compound: O[C@H]1CC[C@H](Nc2ncc3nc(Nc4c(F)cc(F)cc4F)n([C@H]4CCOC4)c3n2)CC1 [Tanzisertib] + CCNC(=O)c1noc(-c2cc(C(C)C)c(O)cc2O)c1-c1ccc(CN2CCOCC2)cc1 [Luminespib] (partner 0.01 µM)
Summary of the method: as §1

Tanzisertib + Pemetrexed = compound: O[C@H]1CC[C@H](Nc2ncc3nc(Nc4c(F)cc(F)cc4F)n([C@H]4CCOC4)c3n2)CC1 [Tanzisertib] + Nc1nc2[nH]cc(CCc3ccc(C(=O)N[C@@H](CCC(=O)O)C(=O)O)cc3)c2c(=O)[nH]1 [Pemetrexed] (partner 0.2 µM)
Summary of the method: as §1

[1] = compound: C[C@@H](N)c1ccc(C(=O)Nc2ccnc3[nH]ccc23)cc1 + C[C@]1(O)C[C@@H](c2nc(-c3ccc4ccc(-c5ccccc5)nc4c3)c3c(N)nccn32)C1 [Linsitinib] (partner 1 µM)
Summary of the method: as §1

Cell Line	relative viability (Tanzisertib + OSI-027; first compound 0.08 µM)	relative viability (Tanzisertib + OSI-027; first compound 0.253 µM)	relative viability (Tanzisertib + OSI-027; first compound 0.8 µM)	relative viability (Tanzisertib + OSI-027; first compound 2.53 µM)	relative viability (Tanzisertib + OSI-027; first compound 8 µM)	relative viability (Tanzisertib + Luminespib; first compound 0.08 µM)	relative viability (Tanzisertib + Luminespib; first compound 0.253 µM)	relative viability (Tanzisertib + Luminespib; first compound 0.8 µM)	relative viability (Tanzisertib + Luminespib; first compound 2.53 µM)	relative viability (Tanzisertib + Luminespib; first compound 8 µM)	relative viability (Tanzisertib + Pemetrexed; first compound 0.08 µM)	relative viability (Tanzisertib + Pemetrexed; first compound 0.253 µM)	relative viability (Tanzisertib + Pemetrexed; first compound 0.8 µM)	relative viability (Tanzisertib + Pemetrexed; first compound 2.53 µM)	relative viability (Tanzisertib + Pemetrexed; first compound 8 µM)	relative viability ([1]; first compound 0.04 µM)	relative viability ([1]; first compound 0.1265 µM)	relative viability ([1]; first compound 0.4 µM)	relative viability ([1]; first compound 4 µM)	relative viability ([1]; first compound 1.265 µM)
NCI-H23	0.587	0.547	0.575	0.747	0.198	0.262	0.227	0.203	0.228	0.199	0.785	0.761	0.682	0.681	0.584	0.665	0.641	0.779	0.519	–
NCI-H322M	0.636	0.623	0.539	0.6	0.538	0.834	0.751	0.87	0.932	0.951	0.644	0.657	0.566	0.621	0.548	1.02	1.12	0.93	1.1	–
NCI-H358	0.817	0.637	0.661	0.655	0.501	0.302	0.282	0.5	0.29	0.318	0.165	0.176	0.171	0.163	0.179	0.707	0.655	0.732	0.702	0.801
NCI-H441	0.855	0.505	0.467	0.444	0.403	0.312	0.338	0.29	0.279	0.314	0.27	0.241	0.286	0.24	0.27	0.626	0.571	0.64	0.45	0.483
NCI-H460	0.664	0.683	0.549	0.624	0.502	0.0366	0.0372	0.0359	0.0394	0.0394	0.0668	0.0601	0.0628	0.0601	0.0429	0.857	0.729	0.823	0.599	0.954
NCI-H520	0.328	0.246	0.238	0.262	0.304	0.255	0.253	0.218	0.227	0.202	0.589	0.714	0.67	0.561	0.642	0.97	1.07	1.05	1.02	1.26
NCI-H596	0.779	0.666	0.766	0.63	0.555	1.1	1.16	1.22	0.96	0.892	0.506	0.538	0.515	0.516	0.467	1.06	1.05	1.22	1.01	1.09
NCI-H647	0.694	0.644	0.569	0.63	0.69	0.152	0.12	0.196	0.158	0.336	0.204	0.185	0.18	0.151	0.156	1.14	1.18	1.22	0.976	1.28
NCI-H650	0.517	0.661	0.508	0.624	0.441	0.725	0.915	0.884	0.936	0.855	0.885	1.03	0.969	1.09	0.576	0.723	0.751	0.841	0.658	–
NCI-H661	0.771	0.741	0.615	0.704	0.655	0.903	0.943	0.902	0.952	0.955	0.896	0.896	0.872	0.919	0.913	0.558	0.582	0.623	0.508	0.441
NCI-H838	0.401	0.426	0.453	0.418	0.4	0.293	0.34	0.277	0.248	0.209	0.234	0.255	0.254	0.233	0.25	0.945	0.905	0.796	0.367	0.533
NCI-H1355	0.479	0.425	0.445	0.423	0.371	0.77	0.697	0.805	0.725	0.628	1.07	1.06	1.05	1.07	1.03	0.853	0.723	0.833	0.771	–
NCI-H1395	0.697	0.714	0.622	0.692	0.518	0.786	0.525	0.632	0.717	0.547	0.868	0.88	0.971	0.939	0.788	1.05	1.14	1.24	0.878	–
NCI-H1437	0.85	0.822	0.943	0.902	0.908	1.18	1.14	1.04	1.27	1.21	0.321	0.327	0.322	0.315	0.263	1.14	1.04	1.07	0.897	1.14
NCI-H1563	0.789	0.731	0.722	0.731	0.704	0.485	0.498	0.524	0.484	0.446	0.829	0.935	0.761	0.711	0.619	1.25	1.16	1.14	1.27	1.13
NCI-H1651	0.712	0.58	0.833	0.614	0.678	0.989	0.802	0.746	0.921	0.729	0.586	0.625	0.436	0.6	0.513	1.12	0.932	0.987	0.994	1.13
